# Measurements published in US9724357B2, “Methods for preserving photoreceptor cell viability following retinal detachment” (Massachusetts Eye & Ear Infirmary, priority 2011, dated 2017).
# How the values were obtained:
# Type in all cases: in vivo, Brown Norway rats
# [1] = test system: photoreceptor cells of detached retina (outer nuclear layer); test: TUNEL staining of photoreceptor death after experimental retinal detachment; settings: administration started six hours after induction of retinal detachment; P=0.03; readout not given
# From the text: (§1) In the examples described herein, all animal experiments adhered to the Association for Research in Vision and Ophthalmology Statement for the Use of Animals in Ophthalmic and Vision Research, and protocols were approved by the Animal Care Committee of the Massachusetts Eye and Ear Infirmary. Adult male Brown Norway rats (200 to 300 g) were purchased from Charles River Laboratories (Wilmington, Mass.). The rats were fed standard laboratory chow and allowed free access to water in an air-conditioned room with a 12 hour light/12 hour dark cycle.
# (§2) Experimental retinal detachment was induced by subretinal injection of hyaluronic acid as previously described (Hisatomi T et al. (2001) AM. J. PATHOL. 158:1271-1278). […] Body temperature was monitored and the animals were kept on a heating pad during the procedure as well as during the recovery period. […]
# (§3) All values disclosed below were expressed as the mean±SD. Statistical differences between two groups were analyzed by Mann-Whitney U test. […]
# Photoreceptor death was assessed by TUNEL staining, which detects DNA fragmentation in apoptotic or necrotic nuclei. […] Fluorescence was imaged using a DM RXA microscope (Leica, Solms Germany) and digitally captured. The number of TUNEL-positive cells per mm^2 at the central area of the detached retina was counted in a masked fashion. […]
# [2] = test system: photoreceptor cells of detached retina (outer nuclear layer); test: Outer nuclear layer (ONL) thickness after experimental retinal detachment; settings: 500 mg/kg/day i.p., mean±SD
# From the text: as §1, §2, §3
# Photoreceptor loss was evaluated by measuring the thickness of the outer nuclear layer (ONL). ONL thickness was determined using National Institutes of Health ImageJ software. Thickness was measured based on the outer boundaries of the DAPI nuclear stain. […]
# TNF-α = TNF-α ELISA on retinal lysates after retinal detachment; settings: 24 hours after retinal detachment; 500 mg/kg/day i.p.; vs vehicle
# From the text: as §1
# (§4) Experimental retinal detachment was induced by subretinal injection of hyaluronic acid as previously described (Hisatomi T et al. (2001) AM. J. PATHOL. 158:1271-1278). Briefly, rats were anesthetized with 100 μl of a mixture of 5 parts Ketamine (100 mg/ml, Phoenix Pharmaceutical, Inc., St Joseph, Mo.), 4 parts PBS and 1 part Xylazine (100 mg/ml, Lloyd Laboratories, Inc., Shenandoah, Iowa). Body temperature was monitored and the animals were kept on a heating pad during the procedure as well as during the recovery period. The pupils were dilated with drops of phenylephrine 5%/tropicamide 0.5%. […]
# (§5) In order to measure inflammatory cytokines, eight eyes from each group (animals without retinal detachment as well as animals with retinal detachment that received vehicle or TUDCA) were analyzed using ELISA assays. […]
# MCP-1 = MCP-1 ELISA on retinal lysates after retinal detachment; settings: samples 24 and 72 hours after retinal detachment (FIG. 2B: one day); 500 mg/kg/day i.p.; vs vehicle
# From the text: as §1, §4, §5
# CD68+ cells = test: Macrophage infiltration (CD68+ immunostaining) in detached retina; settings: one day after induction of retinal detachment; 500 mg/kg/day i.p.; vs vehicle
# From the text: as §1
# (§6) Experimental retinal detachment was induced by subretinal injection of hyaluronic acid as previously described (Hisatomi T et al. (2001) AM. J. PATHOL. 158:1271-1278). Briefly, rats were anesthetized with 100 μl of a mixture of 5 parts Ketamine (100 mg/ml, Phoenix Pharmaceutical, Inc., St Joseph, Mo.), 4 parts PBS and 1 part Xylazine (100 mg/ml, Lloyd Laboratories, Inc., Shenandoah, Iowa). Body temperature was monitored and the animals were kept on a heating pad during the procedure as well as during the recovery period. […]
# In order to assess macrophage infiltration in detached retinas, six eyes from each group (rats treated with vehicle or TUDCA) were analyzed. […] The number of CD68+ cells per […] was determined using the same method as described above for the quantification of TUNEL-positive cells.
# protein carbonyl content = test: Protein carbonyl content ELISA (oxidative stress) in retina after retinal detachment; settings: one day (24 hours) after retinal detachment; 500 mg/kg/day i.p.; vs vehicle
# From the text: as §1, §6
# In order to assess the effect of TUDCA treatment on oxidative stress, the protein carbonyl content in the retina was determined Eight eyes from each group (animals without retinal detachment as well as animals with retinal detachment that received vehicle or TUDCA) were analyzed using ELISA assays. […]
# caspase 2 = test: Caspase 2 colorimetric activity assay in retinal lysates after retinal detachment; settings: retinal lysates 24 hours after retinal detachment; 500 mg/kg/day i.p.; P<0.05
# From the text: as §1, §6
# (§7) The caspase assays were performed on the retina of animals without retinal detachment (n=6) as well as animals with retinal detachment that received vehicle (n=8) or TUDCA (n=8). […] Optical density was assessed at 405 nm and normalized for protein concentration, initial optical density, and compared to a sample filled with buffer. […]
# caspase 3 = test: Caspase 3 colorimetric activity assay in retinal lysates after retinal detachment; settings: retinal lysates 24 hours after retinal detachment; 500 mg/kg/day i.p.; P<0.05
# From the text: as §1, §6, §7
# caspase 9 = test: Caspase 9 colorimetric activity assay in retinal lysates after retinal detachment; settings: retinal lysates 24 hours after retinal detachment; 500 mg/kg/day i.p.; P<0.05
# From the text: as §1, §6, §7
# caspase 8 = test: Caspase 8 colorimetric activity assay in retinal lysates after retinal detachment; settings: retinal lysates 24 hours after retinal detachment; 500 mg/kg/day i.p.
# From the text: as §1, §6, §7
# caspase 11 = test: Caspase 11 western blot of vitreous and neural retina after retinal detachment; settings: samples three days after retinal detachment, 500 mg/kg/day i.p.
# CHOP = CHOP western blot (ER stress) of vitreous and neural retina after retinal detachment; settings: three days after retinal detachment, systemic administration 500 mg/kg/day i.p.
# From the text: as §1
# as §4, with “0.5%. A partial retinal detachment was induced with a transscleral, subretinal injection of approximately 50 μl of 1% sodium hyaluronate (Provisc, Alcon Laboratories Inc., Fort Worth, Tex.).” for “0.5%.”
smiles,measurement,setting,value
"C[C@H](CCC(=O)NCCS(=O)(=O)O)[C@H]1CC[C@H]2[C@@H]3[C@@H](O)C[C@@H]4C[C@H](O)CC[C@]4(C)[C@H]3CC[C@]12C [TUDCA, tauroursodeoxycholic acid]",neuroprotection with delayed treatment (FIG. 1D),[1],showed efficient neuroprotection
same,"ONL thickness ratio (normalized, detached/attached retina)","[2]; five days after detachment, vehicle 0.57±0.04, P=0.002",0.79±0.03
same,"ONL thickness ratio (normalized, detached/attached retina)","[2]; three days of retinal detachment, vehicle 0.65±0.03, P=0.0016",0.84±0.03
same,effect on levels of TNF-α,TNF-α,did not affect
same,effect on levels of MCP-1,MCP-1,did not affect
same,effect on macrophage infiltration (CD68+ cells),CD68+ cells,did not affect macrophage infiltration
same,effect on protein carbonyl content,protein carbonyl content,prevented an increase in protein carbonyl content
same,effect on retinal detachment-induced activity of caspase 2,caspase 2,significantly decreased
same,effect on retinal detachment-induced activity of caspase 3,caspase 3,significantly decreased
same,effect on retinal detachment-induced activity of caspase 9,caspase 9,significantly decreased
same,effect on activity of caspase 8,caspase 8,did not alter
same,effect on activity of caspase 11,caspase 11,did not alter
same,effect on CHOP expression,CHOP,did not significantly alter CHOP expression
